# Measured values from patent publication US4283394A, “Cytotoxic nucleoside-corticosteroid phosphodiesters” (priority 1979, dated 1981).
# Like-named read-outs stand apart in the source and are kept apart here.
# What was measured:
# [1] = test system: mouse leukemia L-1210 cells; experiment: Antiproliferative activity in vitro, viability of L-1210 cells in culture; assay type: cell-based; details: for IC50: read-out: Concentration (μM) for 50 percent loss of viability at 72 hours (ED50)
# Method: The antiproliferative activity of the conjugates, ara-C, ara-CMP and the steroids was determined by measuring their effects against mouse leukemia L-1210 cells in culture. The assay was performed in test tubes without agitation according to the procedure described by Hong et al. in J. Med. Chem. 16: 139 (1973). After 24, 48 and 72 h, viable cell counts were performed on the cultures which had been incubated with compounds in various concentrations and the concentration of each compound required to produce a 50 percent inhibition of growth (ED50) after 72 h was determined by interpolation using the method described by Tritsch et al. in Cancer Biochem. Biophys. 2: 87 (1977).
# [2] = test system: i.p. implanted L-1210 leukemia; experiment: Antitumor activity against i.p. implanted L-1210 leukemia in mice; assay type: in vivo; details: for response vs control in vivo at 50 mg/kg / response vs control in vivo at 100 mg/kg / response vs control in vivo at 25 mg/kg: Mus musculus, L1210, ip; for response vs control in vivo at 50 mg/kg: read-out: Percent T/C (mean survival days treated/control × 100), 50 mg/kg/day × 5 i.p.; for response vs control in vivo at 100 mg/kg: read-out: Percent T/C (mean survival days treated/control × 100), 100 mg/kg/day × 5 i.p.
# Method: The ascites cell form of L-1210 leukemia, grown in C3 D2 F1 /J female mice (supplied by Jackson Labs) were employed. The assay was performed according to National Cancer Institute (NCI) protocol 1.100 described by R. I. Gerau et al., Cancer Chemother. Rep. (Part 3) 3: (2): 7, 47 (1972) with a slight modification. Intraperitoneal implantation of 1×10^6 cells in 0.5-ml suspension to the control and the treated groups (each group comprised 8 C3 D2 F1 /J female mice, average wt 20 g) was carried out using donor mice (DBA/2Ha, supplied by Roswell Park Memorial Institute) bearing 3 day tumor growths. Compounds were dissolved in 0.9 percent NaCl and a 0.5 ml dose was administered intraperitoneally once daily. Treatment began 24 h after implantation and continued for 5 consecutive days. Control animals received a 0.5 ml injection of saline. Testing was followed as described in the NCI protocol and evaluated by recording the survival time according to the formula appearing in protocol 11.
# [3] = test system: i.p. implanted L1210 leukemia; experiment: Comparison of conjugates and ara-C plus steroid combinations, i.p. implanted L1210 leukemic mice; assay type: in vivo
# Method: Each mouse received 1×10^6 cells intraperitoneally. Doses were administered i.p. once daily to groups of 8 mice (avg. wt. 20 g) for 5 consecutive days beginning 24 hours after tumor implantation. In case of the combination, ara-C and the steroid were given at the same molar concentrations present in the conjugates. Mean survival days were calculated by the equation appearing in the NCI protocol; T/C ratios are reported in percent, i.e (treated/control)×100.
# [4] = test system: intracerebrally implanted L-1210; experiment: Antitumor activity against intracerebrally (i.c.) implanted L-1210 in mice; assay type: in vivo; details: for Survivors on day 35: groups of 8 mice; for Percent T/C: values as of 35th day
# Method: Effects of the conjugate on i.c. implanted L-1210 in mice were also studied. A mouse (C3 D2 F1 /J, female, avg. wt. 20 g) was anesthesized with diethyl ether, the right parietal scalp was washed with 70 percent ethanol, a 27 G 1/2 needle with a guard placed on the outside of the barrel 1.5 mm from the top of the bevel, was inserted through the skull and 1×10^5 cells in 0.05 ml suspension were inoculated into the mouse. The conjugate in 0.9 percent NaCl (0.5 ml) was administered intraperitoneally once daily. Treatment began 24 h after implantation and continued for 5 consecutive days. Control animals received a 0.5 ml injection of saline. Testing was followed as described in the NCI protocol and evaluated by recording the survival time according to the formula appearing in protocol 11.
# [5] = read-out: Percent T/C (mean survival days treated/control × 100), 25 mg/kg/day × 5 i.p.
smiles,measurement,setting,value
"Nc1ccn([C@@H]2O[C@H](COP(=O)(O)O)[C@@H](O)[C@@H]2O)c(=O)n1 [Ara-CMP, reference compound]",IC50,"[1]; Mus musculus, L1210, 72 h",0.05 µM
same,"Mean Survival Days, Treated",[2]; 50 mg/kg/day × 5 i.p.,9.13 days
same,"Mean Survival Days, Treated",[2]; 100 mg/kg/day × 5 i.p.,11.00 days
same,response vs control in vivo at 50 mg/kg,[2],104%
same,response vs control in vivo at 100 mg/kg,[2],122%
"C[C@]12C=CC(=O)C=C1CC[C@@H]1[C@@H]2C(=O)C[C@@]2(C)[C@H]1CC[C@]2(O)C(=O)CO [prednisone, 17α,21-dihydroxy-1,4-pregnadiene-3,11,20-trione, reference compound]",response vs control in vivo at 25 mg/kg,"[2]; 25 mg/kg/day × 5 i.p., read-out: Percent T/C (mean survival days treated/control × 100)",133%
C[C@]12CC[C@H]3[C@@H](CCC4=CC(=O)CC[C@@]43C)[C@@H]1CC[C@@H]2C(=O)COP(=O)(O)OC[C@H]1O[C@@H](n2ccc(N)nc2=O)[C@@H](O)[C@@H]1O [DOC-p-ara-C],Survival Days Mean (Treated),[3]; 78.7 μmole/kg/day × 5,21.38 days
same,Weight change on Day 8 (g/mouse),[3]; 78.7 μmole/kg/day × 5,-0.94 g/mouse
same,response vs control in vivo at 78.7 µmol/kg,"[3]; Mus musculus, L1210, ip, 78.7 μmole/kg/day × 5, read-out: % T/C",238%
C[C@]12C[C@H](O)[C@H]3[C@@H](CCC4=CC(=O)CC[C@@]43C)[C@@H]1CC[C@@H]2C(=O)COP(=O)(O)OC[C@H]1O[C@@H](n2ccc(N)nc2=O)[C@@H](O)[C@@H]1O [Corticosterone-p-ara-C],Survival Days Mean (Treated),[3]; 77.0 μmole/kg/day × 5,26.50 days
same,Weight change on Day 8 (g/mouse),[3]; 77.0 μmole/kg/day × 5,-0.71 g/mouse
same,response vs control in vivo at 77 µmol/kg,"[3]; Mus musculus, L1210, ip, 77.0 μmole/kg/day × 5, read-out: % T/C",342%
"C[C@]12C=CC(=O)C=C1CC[C@@H]1[C@@H]2[C@@H](O)C[C@@]2(C)[C@H]1CC[C@]2(O)C(=O)CO [Prednisolone, 11β,17α,21-trihydroxy-1,4-pregnadiene-3,20-dione, reference compound]",response vs control in vivo at 25 mg/kg,[2]; [5],133%
"C[C@]12CCC(=O)C=C1CC[C@@H]1[C@@H]2C(=O)C[C@@]2(C)[C@H]1CC[C@]2(O)C(=O)COP(=O)(O)OC[C@H]1O[C@@H](n2ccc(N)nc2=O)[C@@H](O)[C@@H]1O [Cortisone-p-ara-C (VI), 5'-(Cortisone-21-phosphoryl)-1-β-D-arabinofuranosylcytosine]",antiproliferative activity compared with ara-CMP and ara-C,[1]; 72 h,activity comparable to ara-CMP
same,IC50,"[1]; Mus musculus, L1210, 72 h",0.07 µM
same,"Mean Survival Days, Treated",[2]; 50 mg/kg/day × 5 i.p.,20.14 days
same,response vs control in vivo at 50 mg/kg,[2],224%
same,Survival Days Mean (Treated),[3]; 75.1 μmole/kg/day × 5,21.43 days
same,Weight change on Day 8 (g/mouse),[3]; 75.1 μmole/kg/day × 5,-0.07 g/mouse
same,response vs control in vivo at 75.1 µmol/kg,"[3]; Mus musculus, L1210, ip, 75.1 μmole/kg/day × 5, read-out: % T/C",238%
"C[C@H]1C[C@@H]2[C@H]([C@@H](O)C[C@@]3(C)[C@H]2CC[C@]3(O)C(=O)COP(=O)(O)OC[C@H]2O[C@H](n3ccc(N)nc3=O)[C@@H](O)[C@@H]2O)[C@@]2(C)C=CC(=O)C=C12 [MePred-p-ara-C (IV), 5'-(6α-Methylprednisolone-21-phosphoryl)-1-α-D-arabinofuranosylcytosine]",antiproliferative activity compared with ara-CMP and ara-C,[1]; 72 h,activity comparable to ara-CMP
same,IC50,[1]; 72 h,0.05 µM
same,% T/C,[3]; 74.0 μmole/kg/day × 5,246.8%
same,Survival Days Mean (Treated),[3]; 74.0 μmole/kg/day × 5,19.13 days
same,Survival Days Range,[3]; 74.0 μmole/kg/day × 5,14 to 24 days
same,Weight change on Day 8 (g/mouse),[3]; 74.0 μmole/kg/day × 5,-1.08 g/mouse
"C[C@@H]1C[C@H]2[C@@H]3CCC4=CC(=O)C=C[C@]4(C)[C@@]3(F)[C@@H](O)C[C@]2(C)[C@@]1(O)C(=O)COP(=O)(O)OC[C@H]1O[C@@H](n2ccc(N)nc2=O)[C@@H](O)[C@@H]1O [DXM-p-ara-C (III), 5'-(Dexamethasone-21-phosphoryl)-1-β-D-arabinofuranosylcytosine]",antiproliferative activity compared with ara-CMP and ara-C,[1]; 72 h,activity comparable to ara-CMP
same,IC50,"[1]; Mus musculus, L1210, 72 h",0.08 µM
same,toxicity,[2]; 50 mg (71.7 μmol)/kg/day,showed some toxicity
same,"Mean Survival Days, Treated",[2]; 50 mg/kg/day × 5 i.p.,13.50 days
same,Percent T/C (mean survival days treated/control × 100),[2]; 50 mg/kg/day × 5 i.p.,150%
same,response vs control in vivo at 50 mg/kg,[2],150%
same,Survival Days Mean (Treated),[3]; 36.0 μmole/kg/day × 5,11.50 days
same,Weight change on Day 8 (g/mouse),[3]; 36.0 μmole/kg/day × 5,-1.03 g/mouse
same,Survival Days Mean (Treated),[3]; 71.7 μmole/kg/day × 5,13.50 days
same,Weight change on Day 8 (g/mouse),[3]; 71.7 μmole/kg/day × 5,-1.50 g/mouse
same,response vs control in vivo at 36 µmol/kg,"[3]; Mus musculus, L1210, ip, 36.0 μmole/kg/day × 5, read-out: % T/C",128%
same,response vs control in vivo at 71.7 µmol/kg,"[3]; Mus musculus, L1210, ip, 71.7 μmole/kg/day × 5, read-out: % T/C",150%
CC12CCC(=O)C=C1CCC1C3CCC(O)(C(=O)COP(=O)(O)OCC4OC(n5ccc(N)nc5=O)C(O)C4O)C3(C)CC(O)C12F (centres unmarked) [Fludrocortisone-p-ara-C],Survival Days Mean (Treated),[3]; 36.46 μmole/kg/day × 5,14.30 days
same,Weight change on Day 8 (g/mouse),[3]; 36.46 μmole/kg/day × 5,-1.09 g/mouse
same,response vs control in vivo at 36.46 µmol/kg,"[3]; Mus musculus, L1210, ip, 36.46 μmole/kg/day × 5, read-out: % T/C",159%
"Nc1ccn([C@@H]2O[C@H](CO)[C@@H](O)[C@@H]2O)c(=O)n1 [Ara-C, 1-β-D-Arabinofuranosylcytosine, reference compound]",IC50,"[1]; Mus musculus, L1210, 72 h",0.1 µM
same,"Mean Survival Days, Treated",[2]; 25 mg/kg/day × 5 i.p.,11.00 days
same,"Mean Survival Days, Treated",[2]; 50 mg/kg/day × 5 i.p.,9.63 days
same,Percent T/C (mean survival days treated/control × 100),[2]; 50 mg/kg/day × 5 i.p.,110%
same,response vs control in vivo at 25 mg/kg,[2]; [5],128%
same,response vs control in vivo at 50 mg/kg,[2],110%
same,Mean Survival Days,[4]; 25 mg (102.8 μmol)/kg/day × 5 i.p.,13.75 days
same,Survivors on day 35,[4]; 25 mg/kg/day × 5 i.p.,0
same,Percent T/C,[4]; 25 mg/kg/day × 5 i.p.,152.8%
same,Percent T/C,"[4]; 25 mg/kg/day × 5 i.p., listed as ara-C",153%
same,weight lost by day 14,[4]; ara-C treated mice,about 5 g
same,deaths of treated mice,"[4]; ara-C treated mice, by day 14",all but one of them died
"C[C@]12CCC(=O)C=C1CC[C@@H]1[C@@H]2[C@@H](O)C[C@@]2(C)[C@H]1CC[C@]2(O)C(=O)COP(=O)(O)OC[C@H]1O[C@@H](n2ccc(N)nc2=O)[C@@H](O)[C@@H]1O [Cortisol-p-ara-C (V), 5'-(Cortisol-21-phosphoryl)-1-β-D-arabinofuranosylcytosine]",antiproliferative activity compared with ara-CMP and ara-C,[1]; 72 h,less active than both ara-CMP and ara-C
same,IC50,"[1]; Mus musculus, L1210, 72 h",0.25 µM
same,"Mean Survival Days, Treated",[2]; 50 mg/kg/day × 5 i.p.,24.75 days
same,"Mean Survival Days, Treated",[2]; 100 mg/kg/day × 5 i.p.,14.25 days
same,response vs control in vivo at 50 mg/kg,[2],287%
same,response vs control in vivo at 100 mg/kg,[2],154%
same,Survival Days Mean (Treated),[3]; 75.0 μmole/kg/day × 5,24.75 days
same,Weight change on Day 8 (g/mouse),"[3]; 75.0 μmole/kg/day × 5 (each, for combinations)",+0.09 g/mouse
same,response vs control in vivo at 75 µmol/kg,"[3]; Mus musculus, L1210, ip, 75.0 μmole/kg/day × 5, read-out: % T/C",287%
same,Mean Survival Days,[4]; 50 mg/kg/day × 5 i.p.,20.50 days
same,body weight lost by day 11,[4]; 50 mg/kg/day × 5 i.p.,about 4 g
same,weight gained over original weight (20 g) by day 20,[4]; 50 mg/kg/day × 5 i.p.,about 1 g
same,Survivors on day 35,[4]; 50 mg/kg/day × 5 i.p.,2
same,Percent T/C,[4]; 50 mg/kg/day × 5 i.p.,227.8%
same,Percent T/C,"[4]; 50 mg/kg/day × 5 i.p., listed as V",228%
